Values quoted from earlier work as cited in US8030432B2, “Copolymerization of hydroxytyrosol with flavonoids mediated by horseradish peroxidases” (The United States of America as represented by the …, priority 2009, dated 2011).

What was measured:
[1] = addition of 300 mg/Kg; red meat and poultry

| Substance | inhibition of oxidation [1] | decomposition at room temperature |
| --- | --- | --- |
| catechin | showed inhibition of oxidation | – |
| epigallocatechin-3-gallate [EGCG] | – | decompose at room temperature after a few minutes |
